The target in assay [1] is RAC-alpha serine/threonine-protein kinase (Homo sapiens) (UniProt P31749). Kind of assay: Inhibition of AKT at < 10 uM by IMAP assay.
For assay [2], the target named is Protein kinase C beta type (Homo sapiens) (UniProt P05771). Kind of assay: Inhibition of human recombinant PKCbeta1 at < 10 uM after 10 mins by radiometric assay.
Assay [3] concerns the target Calcium/calmodulin-dependent protein kinase type II subunit alpha (Homo sapiens) (UniProt Q9UQM7). Kind of assay: Inhibition of human recombinant CAMK2alpha at < 10 uM after 10 mins by radiometric assay.
The target in assay [4] is Cyclin-dependent kinase 7 (Homo sapiens) (UniProt P50613). Nature of the assay: Inhibition of CDK7 at < 10 uM by TR-FRET assay.
Assay [5] addresses Protein kinase C alpha type (Homo sapiens) (UniProt P17252). Nature of the assay: Inhibition of human recombinant PKCalpha at < 10 uM after 10 mins by radiometric assay.
For assay [6], the target named is Serine/threonine-protein kinase PLK1 (Homo sapiens) (UniProt P53350). Nature of the assay: Inhibition of PLK1 at < 10 uM by TR-FRET assay.
The target in assay [7] is Serine/threonine-protein kinase PLK2 (Homo sapiens) (UniProt Q9NYY3). Kind of assay: Inhibition of PLK2 at < 10 uM by TR-FRET assay. (Time-resolved FRET reads energy transfer from a long-lived donor to a nearby acceptor.)
Assay [8] deals with Protein kinase C delta type (Homo sapiens) (UniProt Q05655). Nature of the assay: Inhibition of human recombinant PKCdelta at < 10 uM after 10 mins by radiometric assay.
Assay [9] is described as follows: Inhibition of human recombinant PKD3 after 10 mins by radiometric assay.

The source made the active and inactive calls. The calls are words filed in the database; no cut-off is given here. Some results are limits rather than exact numbers.

Cyclin-dependent kinase 7 (Homo sapiens), sequence (P50613 whole entry): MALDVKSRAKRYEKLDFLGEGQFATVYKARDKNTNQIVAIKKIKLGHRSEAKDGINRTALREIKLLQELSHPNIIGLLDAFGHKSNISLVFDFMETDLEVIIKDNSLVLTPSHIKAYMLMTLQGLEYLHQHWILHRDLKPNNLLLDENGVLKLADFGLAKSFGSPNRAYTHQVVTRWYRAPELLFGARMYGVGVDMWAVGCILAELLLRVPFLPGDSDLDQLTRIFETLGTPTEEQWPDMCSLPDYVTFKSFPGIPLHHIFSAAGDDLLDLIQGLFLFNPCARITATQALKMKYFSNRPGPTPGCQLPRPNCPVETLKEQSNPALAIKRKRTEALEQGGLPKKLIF
Serine/threonine-protein kinase PLK1 (Homo sapiens), sequence (P53350 whole entry): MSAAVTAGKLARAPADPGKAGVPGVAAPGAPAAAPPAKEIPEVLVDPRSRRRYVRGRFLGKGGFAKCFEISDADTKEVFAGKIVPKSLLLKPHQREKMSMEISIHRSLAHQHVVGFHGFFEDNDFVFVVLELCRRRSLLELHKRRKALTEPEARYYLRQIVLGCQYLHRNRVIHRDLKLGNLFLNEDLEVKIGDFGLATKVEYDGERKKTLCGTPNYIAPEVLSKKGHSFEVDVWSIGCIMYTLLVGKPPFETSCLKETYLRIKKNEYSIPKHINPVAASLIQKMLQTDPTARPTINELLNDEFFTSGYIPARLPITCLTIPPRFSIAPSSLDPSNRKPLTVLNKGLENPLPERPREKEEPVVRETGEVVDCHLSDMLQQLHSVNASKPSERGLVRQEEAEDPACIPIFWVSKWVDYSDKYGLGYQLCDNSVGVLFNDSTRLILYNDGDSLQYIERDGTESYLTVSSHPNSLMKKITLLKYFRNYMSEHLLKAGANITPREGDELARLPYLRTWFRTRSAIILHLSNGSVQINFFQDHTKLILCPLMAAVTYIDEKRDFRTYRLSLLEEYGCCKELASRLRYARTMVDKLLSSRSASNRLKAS
Calcium/calmodulin-dependent protein kinase type II subunit alpha (Homo sapiens), sequence (Q9UQM7 whole entry): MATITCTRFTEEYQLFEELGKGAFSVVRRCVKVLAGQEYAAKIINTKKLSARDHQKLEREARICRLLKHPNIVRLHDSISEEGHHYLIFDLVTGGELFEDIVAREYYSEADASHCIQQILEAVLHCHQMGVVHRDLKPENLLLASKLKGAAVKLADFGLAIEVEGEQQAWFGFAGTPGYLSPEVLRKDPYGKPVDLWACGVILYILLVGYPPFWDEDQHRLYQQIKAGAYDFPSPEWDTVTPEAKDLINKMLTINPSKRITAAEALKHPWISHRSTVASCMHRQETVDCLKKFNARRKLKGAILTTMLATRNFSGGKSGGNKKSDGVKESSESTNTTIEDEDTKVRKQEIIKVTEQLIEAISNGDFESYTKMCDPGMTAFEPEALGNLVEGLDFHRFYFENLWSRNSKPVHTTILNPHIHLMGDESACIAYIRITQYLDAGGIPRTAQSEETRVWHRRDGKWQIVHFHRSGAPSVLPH
Protein kinase C beta type (Homo sapiens), sequence (P05771 2-671 limits assumed): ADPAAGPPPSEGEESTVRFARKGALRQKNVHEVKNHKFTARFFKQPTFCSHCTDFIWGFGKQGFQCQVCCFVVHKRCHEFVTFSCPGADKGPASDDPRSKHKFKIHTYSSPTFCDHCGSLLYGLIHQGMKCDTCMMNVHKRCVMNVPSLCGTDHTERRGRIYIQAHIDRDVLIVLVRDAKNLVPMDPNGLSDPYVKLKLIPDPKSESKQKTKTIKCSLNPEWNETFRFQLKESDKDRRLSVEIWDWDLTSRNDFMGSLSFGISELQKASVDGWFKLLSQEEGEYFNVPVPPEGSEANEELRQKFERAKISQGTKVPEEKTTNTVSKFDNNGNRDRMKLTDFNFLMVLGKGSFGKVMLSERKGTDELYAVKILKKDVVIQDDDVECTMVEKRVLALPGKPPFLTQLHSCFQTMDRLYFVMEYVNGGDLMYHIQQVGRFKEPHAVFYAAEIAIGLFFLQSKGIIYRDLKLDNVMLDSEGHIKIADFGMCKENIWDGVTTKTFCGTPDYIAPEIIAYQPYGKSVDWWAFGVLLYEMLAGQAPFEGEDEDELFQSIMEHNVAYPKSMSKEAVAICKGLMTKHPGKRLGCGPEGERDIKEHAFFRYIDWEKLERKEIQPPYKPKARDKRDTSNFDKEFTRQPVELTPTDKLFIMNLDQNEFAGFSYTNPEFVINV
Serine/threonine-protein kinase PLK2 (Homo sapiens), sequence (Q9NYY3 whole entry, looked up): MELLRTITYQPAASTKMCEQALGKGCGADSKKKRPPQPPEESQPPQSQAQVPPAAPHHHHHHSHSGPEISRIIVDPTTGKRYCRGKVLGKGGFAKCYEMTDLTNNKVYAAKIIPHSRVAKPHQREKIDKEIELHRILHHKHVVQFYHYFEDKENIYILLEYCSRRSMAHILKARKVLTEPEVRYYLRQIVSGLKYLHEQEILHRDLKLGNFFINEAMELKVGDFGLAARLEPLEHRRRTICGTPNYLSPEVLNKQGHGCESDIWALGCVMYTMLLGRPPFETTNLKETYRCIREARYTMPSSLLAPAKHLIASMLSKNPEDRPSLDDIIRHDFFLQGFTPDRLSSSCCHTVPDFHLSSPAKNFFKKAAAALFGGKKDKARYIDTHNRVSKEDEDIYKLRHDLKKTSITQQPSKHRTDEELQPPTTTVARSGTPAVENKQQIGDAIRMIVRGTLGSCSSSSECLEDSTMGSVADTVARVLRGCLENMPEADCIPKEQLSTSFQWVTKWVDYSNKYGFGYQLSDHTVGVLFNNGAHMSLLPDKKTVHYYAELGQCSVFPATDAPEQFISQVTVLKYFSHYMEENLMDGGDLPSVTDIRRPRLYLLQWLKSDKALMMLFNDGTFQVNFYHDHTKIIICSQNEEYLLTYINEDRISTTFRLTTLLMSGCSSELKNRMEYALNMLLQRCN
Protein kinase C delta type (Homo sapiens), sequence (Q05655 whole entry, looked up): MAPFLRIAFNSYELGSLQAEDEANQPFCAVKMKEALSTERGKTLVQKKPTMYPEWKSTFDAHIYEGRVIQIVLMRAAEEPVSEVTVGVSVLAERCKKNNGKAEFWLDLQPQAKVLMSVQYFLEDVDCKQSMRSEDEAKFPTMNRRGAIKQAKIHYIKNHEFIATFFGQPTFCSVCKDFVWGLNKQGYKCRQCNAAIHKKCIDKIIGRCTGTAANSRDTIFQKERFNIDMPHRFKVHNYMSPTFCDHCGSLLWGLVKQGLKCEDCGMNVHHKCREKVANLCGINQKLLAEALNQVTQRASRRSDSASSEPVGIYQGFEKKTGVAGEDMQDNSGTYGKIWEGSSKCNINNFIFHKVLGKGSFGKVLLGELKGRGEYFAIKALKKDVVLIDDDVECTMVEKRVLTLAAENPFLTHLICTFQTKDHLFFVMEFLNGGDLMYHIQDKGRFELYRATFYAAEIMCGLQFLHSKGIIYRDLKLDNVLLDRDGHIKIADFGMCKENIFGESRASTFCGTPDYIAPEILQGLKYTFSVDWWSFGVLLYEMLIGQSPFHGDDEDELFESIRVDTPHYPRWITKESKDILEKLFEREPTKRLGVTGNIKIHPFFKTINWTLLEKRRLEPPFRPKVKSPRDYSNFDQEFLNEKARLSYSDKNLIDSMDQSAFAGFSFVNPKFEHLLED
RAC-alpha serine/threonine-protein kinase (Homo sapiens), sequence (P31749 whole entry): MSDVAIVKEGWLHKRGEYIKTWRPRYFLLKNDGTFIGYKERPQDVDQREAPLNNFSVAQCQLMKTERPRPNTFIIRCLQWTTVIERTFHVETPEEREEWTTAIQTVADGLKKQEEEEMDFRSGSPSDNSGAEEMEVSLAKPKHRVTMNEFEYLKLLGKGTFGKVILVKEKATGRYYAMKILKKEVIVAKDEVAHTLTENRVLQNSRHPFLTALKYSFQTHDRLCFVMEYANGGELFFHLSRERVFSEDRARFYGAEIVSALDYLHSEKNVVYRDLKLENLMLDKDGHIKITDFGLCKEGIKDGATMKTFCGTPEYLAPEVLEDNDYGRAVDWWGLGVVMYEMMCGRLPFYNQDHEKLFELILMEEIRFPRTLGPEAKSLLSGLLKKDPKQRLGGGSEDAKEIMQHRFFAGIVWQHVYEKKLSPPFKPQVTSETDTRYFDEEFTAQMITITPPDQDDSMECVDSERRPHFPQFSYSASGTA

Consider `O=C1NCCCc2c1oc1ccc(O)cc21`, for which the inhibition entry in assay [1], in assay [2], in [3], in assay [4], in assay [5] and in assay [6] was “inactive” in each case. Moreover, the inhibition result in assay [7] and in assay [8] was “inactive” throughout.
As to `COc1ccc2sc3c(c2c1)SCCCNC3=O`, the inhibition result in assay [1], in assay [2], in [3], in [4], in [5] and in assay [6] was “inactive” in each case. The inhibition result in [7] and in [8] was “inactive” throughout.
For `COc1ncc2sc3c(c2n1)SCCNC3=O`, the inhibition entry in assay [1], in assay [2], in assay [3], in [4], in [5] and in assay [6] was “inactive” throughout. For the same compound, the inhibition entry in assay [7] and in assay [8] was “inactive” throughout. In assay [9], the half-inhibitory concentration (IC50) (commonly the concentration that inhibits the measured activity by half) was found to be 0.05 µM.
Take `O=C1NCCCSc2c1sc1ccc(O)cc21`: the inhibition entry in [1], in [2], in assay [3], in assay [4], in assay [5] and in [6] was “inactive” throughout. Besides, the inhibition entry in assay [7] and in assay [8] was “inactive” in each case.
`[N-]=[N+]=Nc1ccc2sc3c(c2c1)SCCNC3=O`: the inhibition result in [1], in assay [2], in assay [4], in assay [5], in assay [6] and in assay [7] was “inactive” throughout. The inhibition (usually the percentage by which the read-out fell short of the control) in assay [8] is “inactive”. Besides, the inhibition in assay [3] was less than 40%.
As for `O=C1NCCCc2c1[nH]c1ccc(O)cc21`, the inhibition entry in assay [1], in [2], in assay [4], in [5], in assay [6] and in assay [7] was “inactive” each time. In addition, in assay [8], the inhibition entry was “inactive”. Also, the inhibition in assay [3] is less than 40%.
Take `COc1ccc2sc3c(c2c1)SCCNC3=O`: the inhibition entry in [1], in assay [2], in assay [3], in [4], in assay [5] and in assay [6] was “inactive” in each case. Also, the inhibition result in assay [7] and in [8] was “inactive” each time.
Regarding `O=C1NCCSc2c1sc1ccc(O)cc21`, the inhibition entry in [1], in [2], in assay [3], in [4], in assay [5] and in assay [6] was “inactive” each time. Further, the inhibition entry in [7] and in [8] was “inactive” throughout.
